A word on the MIC: it is the least concentration at which growth counts as inhibited. A low value points to inhibition by little substance.

Holding throughout (assay type): functional
One experiment concerns Citrobacter freundii. The experiment is described as follows: Antibacterial activity against Citrobacter freundii CIP 5732 after 16 to 20 hrs by broth microdilution method. On the technique in general: Dilution methods test growth across graded concentrations, often in twofold steps.
Experiment [1] has as its system Escherichia coli. Nature of the experiment: Antibacterial activity against Escherichia coli ATCC 35218 after 16 to 20 hrs by broth microdilution method.
A further experiment concerns Klebsiella pneumoniae. Nature of the experiment: Antibacterial activity against Klebsiella pneumoniae CIP 53153 after 16 to 20 hrs by broth microdilution method.
The test system of experiment [2] is Staphylococcus aureus. The experiment is described as follows: Antibacterial activity against methicillin-resistant Staphylococcus aureus ATCC 43300 after 16 to 20 hrs by broth microdilution method.
The test system of experiment [3] is Staphylococcus aureus. Nature of the experiment: Antibacterial activity against Staphylococcus aureus […] after 16 to 20 hrs by broth microdilution method.
In another experiment the test system is Pseudomonas aeruginosa. Nature of the experiment: Antibacterial activity against Pseudomonas aeruginosa CIP 82118 after 16 to 20 hrs by broth microdilution method.
In experiment [4] the test system is Escherichia coli. Nature of the experiment: Antibacterial activity against Escherichia coli ATCC 25922 after 16 to 20 hrs by broth microdilution method.
In a further experiment the test system is Proteus vulgaris. Nature of the experiment: Antibacterial activity against Proteus vulgaris CIP 104989 after 16 to 20 hrs by broth microdilution method.
For the next experiment, the system named is Enterobacter cloacae. The experiment is described as follows: Antibacterial activity against Enterobacter cloacae CIP 103475 after 16 to 20 hrs by broth microdilution method.
Another experiment deals with Enterococcus faecalis. Nature of the experiment: Antibacterial activity against Enterococcus faecalis ATCC 25912 after 16 to 20 hrs by broth microdilution method.

Converted amounts (≈) assume the structure as drawn. A value given as a limit tells only on which side of the number the result lay.

Regarding `Cc1cc(C)cc(C(c2c(O)ccc3ccccc23)N2CCC(C)CC2)c1` (stereo not given), the MIC against Citrobacter freundii, against Escherichia coli [1], with Klebsiella pneumoniae, in the experiment on Staphylococcus aureus [2], in the experiment with Staphylococcus aureus [3] and in the experiment on Pseudomonas aeruginosa was over 512 µg/mL in each case. For the same compound, the minimum inhibitory concentration (MIC) against Escherichia coli [4], in the experiment on Proteus vulgaris, with Enterobacter cloacae and against Enterococcus faecalis was over 512 µg/mL throughout.

With `CC1CCN(C(c2ccc(F)cc2)c2c(O)ccc3ccccc23)CC1` (stereo not given), the MIC against Citrobacter freundii, with Escherichia coli [1], in the experiment with Klebsiella pneumoniae, against Staphylococcus aureus [2], in the experiment on Staphylococcus aureus [3] and against Pseudomonas aeruginosa was over 512 µg/mL in each case. Also, the minimum inhibitory concentration (MIC) against Escherichia coli [4], against Proteus vulgaris, with Enterobacter cloacae and in the experiment on Enterococcus faecalis was over 512 µg/mL each time.

On to `CC1CCN(C(c2ccc(Br)s2)c2c(O)ccc3ccccc23)CC1` (stereo not given), for which the MIC against Citrobacter freundii is over 512 µg/mL; against Escherichia coli [1], over 512 µg/mL; in the experiment on Klebsiella pneumoniae it was over 512 µg/mL; against Staphylococcus aureus [2] it was 16 µg/mL (≈ 38.4 µM); in the experiment on Staphylococcus aureus [3], 8 µg/mL (≈ 19.2 µM); in the experiment with Pseudomonas aeruginosa it was over 512 µg/mL. The minimum inhibitory concentration (MIC) against Escherichia coli [4] is over 512 µg/mL; against Proteus vulgaris, over 512 µg/mL; against Enterobacter cloacae, over 512 µg/mL; in the experiment with Enterococcus faecalis, 16 µg/mL (≈ 38.4 µM).

Take `Oc1ccc2ccccc2c1C(c1cccc2ccccc12)N1CCCCC1` (stereo not given): the MIC against Citrobacter freundii, against Escherichia coli [1], against Klebsiella pneumoniae, in the experiment on Staphylococcus aureus [2], against Staphylococcus aureus [3] and against Pseudomonas aeruginosa was over 512 µg/mL each time. Further, the minimal inhibitory concentration (MIC) against Escherichia coli [4], with Proteus vulgaris, in the experiment on Enterobacter cloacae and against Enterococcus faecalis was over 512 µg/mL each time.

As for `CC1CCN(C(c2cccc3ccccc23)c2c(O)ccc3ccccc23)CC1` (stereo not given), the MIC against Citrobacter freundii, against Escherichia coli [1], against Klebsiella pneumoniae, in the experiment on Staphylococcus aureus [2], against Staphylococcus aureus [3] and against Pseudomonas aeruginosa was over 512 µg/mL each time. For the same compound, the MIC against Escherichia coli [4], with Proteus vulgaris, in the experiment on Enterobacter cloacae and against Enterococcus faecalis was over 512 µg/mL in each case.

Take `CC1CCN(C(c2ccccc2)c2c(O)ccc3ccccc23)CC1` (stereo not given): the minimal inhibitory concentration (MIC) against Citrobacter freundii, against Escherichia coli [1], against Klebsiella pneumoniae, with Staphylococcus aureus [2], in the experiment on Staphylococcus aureus [3] and against Pseudomonas aeruginosa was over 512 µg/mL each time. The MIC in the experiment on Escherichia coli [4], with Proteus vulgaris, in the experiment on Enterobacter cloacae and against Enterococcus faecalis was over 512 µg/mL throughout.

In the case of `Oc1ccc2ccccc2c1C(c1ccc(F)cc1)N1CCCCC1` (stereo not given), the MIC in the experiment with Citrobacter freundii was over 512 µg/mL; against Escherichia coli [1] it was over 512 µg/mL; against Klebsiella pneumoniae, over 512 µg/mL; with Staphylococcus aureus [2], over 512 µg/mL; against Staphylococcus aureus [3], 8 µg/mL (≈ 23.9 µM); in the experiment with Pseudomonas aeruginosa, over 512 µg/mL. The minimum inhibitory concentration (MIC) against Escherichia coli [4], with Proteus vulgaris, with Enterobacter cloacae and in the experiment on Enterococcus faecalis was over 512 µg/mL each time.

For `Oc1ccc2ccccc2c1C(c1ccccc1)N1CCCCC1` (stereo not given), the minimum inhibitory concentration (MIC) against Citrobacter freundii was over 512 µg/mL; with Escherichia coli [1], over 512 µg/mL; against Klebsiella pneumoniae, over 512 µg/mL; with Staphylococcus aureus [2] it was over 512 µg/mL; in the experiment on Staphylococcus aureus [3], 8 µg/mL (≈ 25.2 µM); in the experiment on Pseudomonas aeruginosa it was over 512 µg/mL. In addition, the MIC in the experiment on Escherichia coli [4], in the experiment with Proteus vulgaris, with Enterobacter cloacae and against Enterococcus faecalis was over 512 µg/mL each time.

With `Oc1ccc2ccccc2c1C(c1cccs1)n1nnc2ccccc21` (stereo not given), the MIC against Citrobacter freundii is over 512 µg/mL; in the experiment with Escherichia coli [1], over 512 µg/mL; with Klebsiella pneumoniae, over 512 µg/mL; in the experiment on Staphylococcus aureus [2], 16 µg/mL (≈ 44.8 µM); in the experiment with Staphylococcus aureus [3], 16 µg/mL (≈ 44.8 µM); against Pseudomonas aeruginosa, over 512 µg/mL. Moreover, the minimum inhibitory concentration (MIC) in the experiment on Escherichia coli [4], against Proteus vulgaris, in the experiment on Enterobacter cloacae and against Enterococcus faecalis was over 512 µg/mL in each case.

For `Cc1cc(C)cc(C(c2c(O)ccc3ccccc23)N2CCCCC2)c1` (stereo not given), the minimum inhibitory concentration (MIC) against Citrobacter freundii is over 512 µg/mL; in the experiment on Escherichia coli [1], over 512 µg/mL; against Klebsiella pneumoniae, over 512 µg/mL; against Staphylococcus aureus [2], over 512 µg/mL; against Staphylococcus aureus [3], 4 µg/mL (≈ 11.6 µM); in the experiment with Pseudomonas aeruginosa, over 512 µg/mL. Besides, the minimum inhibitory concentration (MIC) against Escherichia coli [4], against Proteus vulgaris, in the experiment on Enterobacter cloacae and with Enterococcus faecalis was over 512 µg/mL in each case.

On to `CC1(C)S[C@@H]2[C@H](NC(=O)[C@H](N)c3ccc(O)cc3)C(=O)N2[C@H]1C(=O)O` [AMOXICILLIN], for which the minimal inhibitory concentration (MIC) is 125 µg/mL (≈ 342 µM) against Citrobacter freundii; 2 µg/mL (≈ 5.47 µM) with Escherichia coli [1]; 256 µg/mL (≈ 701 µM) with Klebsiella pneumoniae; 8 µg/mL (≈ 21.9 µM) against Staphylococcus aureus [2]; 0.06 µg/mL (≈ 0.164 µM) in the experiment on Staphylococcus aureus [3]; over 512 µg/mL in the experiment on Pseudomonas aeruginosa. For the same compound, the minimal inhibitory concentration (MIC) came to 2 µg/mL (≈ 5.47 µM) in the experiment on Escherichia coli [4], 256 µg/mL (≈ 701 µM) against Proteus vulgaris, 256 µg/mL (≈ 701 µM) against Enterobacter cloacae and 0.25 µg/mL (≈ 0.684 µM) against Enterococcus faecalis.
